Reference: publication PMC8222254, “Self-assembly of an anion receptor with metal-dependent kinase inhibition and potent in vitro anti-cancer properties” (Nature Communications, 2021)
Values joined by “and” are separate entries in the source; they are usually repeats but may differ in a detail not shown here. Equal values may be shown once.

How the values were obtained:
Test in all cases: Kinase inhibition screen, cell-free 33P ATP assay at 10 μM
Assay type in all cases: biochemical
[1] = biological target: 140 purified human kinases (Homo sapiens, UniProt P45983)
Chain of 140 purified human kinases (Homo sapiens, UniProt P45983) (P45983 whole entry): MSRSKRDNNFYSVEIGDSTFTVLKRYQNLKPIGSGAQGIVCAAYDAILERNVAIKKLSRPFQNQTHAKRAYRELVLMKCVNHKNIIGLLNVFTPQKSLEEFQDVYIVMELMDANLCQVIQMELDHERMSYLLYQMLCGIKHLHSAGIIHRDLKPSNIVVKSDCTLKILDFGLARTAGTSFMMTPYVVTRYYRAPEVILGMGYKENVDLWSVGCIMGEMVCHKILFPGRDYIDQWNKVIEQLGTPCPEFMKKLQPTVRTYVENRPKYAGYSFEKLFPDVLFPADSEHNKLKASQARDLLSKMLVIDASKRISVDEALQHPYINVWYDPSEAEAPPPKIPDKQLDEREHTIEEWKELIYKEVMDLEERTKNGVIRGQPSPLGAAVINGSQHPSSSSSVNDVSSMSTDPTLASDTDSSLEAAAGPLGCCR
How it was run: (§1)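 Radiometric ^33P ATP cell-free format with purified enzymes; both complexes run at 10 μM in duplicate, results plotted on a kinome map via HGNC symbols.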

[2] = biological target: T1, 140 purified human kinases (Homo sapiens, UniProt Q9NWZ3)
T1 sequence (Q9NWZ3 1-460): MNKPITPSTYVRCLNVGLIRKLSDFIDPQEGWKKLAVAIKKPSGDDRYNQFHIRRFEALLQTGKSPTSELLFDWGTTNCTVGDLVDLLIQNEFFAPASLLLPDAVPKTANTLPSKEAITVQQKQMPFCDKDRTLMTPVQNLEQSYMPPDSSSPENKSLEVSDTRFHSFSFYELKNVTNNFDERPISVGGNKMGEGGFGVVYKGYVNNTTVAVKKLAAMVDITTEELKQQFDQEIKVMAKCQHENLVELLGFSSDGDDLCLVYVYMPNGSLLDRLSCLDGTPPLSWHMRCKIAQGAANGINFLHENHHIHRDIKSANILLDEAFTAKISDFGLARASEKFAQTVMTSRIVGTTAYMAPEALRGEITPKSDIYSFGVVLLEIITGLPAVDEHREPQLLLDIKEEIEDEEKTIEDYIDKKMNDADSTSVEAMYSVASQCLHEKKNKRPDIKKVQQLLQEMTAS
How it was run: as §1

[3] = biological target: 140 purified human kinases (Homo sapiens, UniProt P51617)
Chain of 140 purified human kinases (Homo sapiens, UniProt P51617) (P51617 whole entry): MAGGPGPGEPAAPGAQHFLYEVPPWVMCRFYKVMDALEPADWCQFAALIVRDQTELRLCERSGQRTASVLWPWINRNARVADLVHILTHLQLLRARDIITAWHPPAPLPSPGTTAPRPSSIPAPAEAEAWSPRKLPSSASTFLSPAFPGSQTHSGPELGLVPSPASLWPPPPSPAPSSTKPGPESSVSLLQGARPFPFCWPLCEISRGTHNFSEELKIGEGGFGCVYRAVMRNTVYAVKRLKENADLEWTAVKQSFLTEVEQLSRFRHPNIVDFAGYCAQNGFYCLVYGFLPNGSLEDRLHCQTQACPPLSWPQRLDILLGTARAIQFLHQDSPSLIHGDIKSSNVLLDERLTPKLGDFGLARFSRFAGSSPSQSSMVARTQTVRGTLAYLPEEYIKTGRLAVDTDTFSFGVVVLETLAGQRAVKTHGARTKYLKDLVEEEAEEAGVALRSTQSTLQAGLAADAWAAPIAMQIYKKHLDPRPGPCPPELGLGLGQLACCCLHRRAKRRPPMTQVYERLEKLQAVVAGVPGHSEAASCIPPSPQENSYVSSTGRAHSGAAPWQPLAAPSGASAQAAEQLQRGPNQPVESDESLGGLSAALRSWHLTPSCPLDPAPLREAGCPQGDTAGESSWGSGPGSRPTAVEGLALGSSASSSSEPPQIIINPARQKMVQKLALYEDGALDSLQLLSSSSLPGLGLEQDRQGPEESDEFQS
How it was run: as §1

[4] = biological target: T2, 140 purified human kinases (Homo sapiens, UniProt Q13188)
T2 sequence (Q13188 1-491): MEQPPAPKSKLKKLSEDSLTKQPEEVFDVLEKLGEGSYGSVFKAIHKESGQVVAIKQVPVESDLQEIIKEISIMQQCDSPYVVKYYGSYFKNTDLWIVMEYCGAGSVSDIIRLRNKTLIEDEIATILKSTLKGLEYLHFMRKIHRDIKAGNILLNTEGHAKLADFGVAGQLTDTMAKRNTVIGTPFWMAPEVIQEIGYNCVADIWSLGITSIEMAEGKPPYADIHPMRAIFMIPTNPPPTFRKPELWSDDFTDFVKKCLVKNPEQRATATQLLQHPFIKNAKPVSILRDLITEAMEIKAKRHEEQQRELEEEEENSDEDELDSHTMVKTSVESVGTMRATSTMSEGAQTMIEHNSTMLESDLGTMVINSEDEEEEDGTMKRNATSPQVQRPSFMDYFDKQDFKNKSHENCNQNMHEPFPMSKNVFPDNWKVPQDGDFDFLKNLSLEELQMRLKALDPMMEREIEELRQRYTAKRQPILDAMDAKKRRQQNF
How it was run: as §1

[5] = biological target: 140 purified human kinases (Homo sapiens, UniProt Q9H422)
Chain of 140 purified human kinases (Homo sapiens, UniProt Q9H422) (Q9H422 whole entry): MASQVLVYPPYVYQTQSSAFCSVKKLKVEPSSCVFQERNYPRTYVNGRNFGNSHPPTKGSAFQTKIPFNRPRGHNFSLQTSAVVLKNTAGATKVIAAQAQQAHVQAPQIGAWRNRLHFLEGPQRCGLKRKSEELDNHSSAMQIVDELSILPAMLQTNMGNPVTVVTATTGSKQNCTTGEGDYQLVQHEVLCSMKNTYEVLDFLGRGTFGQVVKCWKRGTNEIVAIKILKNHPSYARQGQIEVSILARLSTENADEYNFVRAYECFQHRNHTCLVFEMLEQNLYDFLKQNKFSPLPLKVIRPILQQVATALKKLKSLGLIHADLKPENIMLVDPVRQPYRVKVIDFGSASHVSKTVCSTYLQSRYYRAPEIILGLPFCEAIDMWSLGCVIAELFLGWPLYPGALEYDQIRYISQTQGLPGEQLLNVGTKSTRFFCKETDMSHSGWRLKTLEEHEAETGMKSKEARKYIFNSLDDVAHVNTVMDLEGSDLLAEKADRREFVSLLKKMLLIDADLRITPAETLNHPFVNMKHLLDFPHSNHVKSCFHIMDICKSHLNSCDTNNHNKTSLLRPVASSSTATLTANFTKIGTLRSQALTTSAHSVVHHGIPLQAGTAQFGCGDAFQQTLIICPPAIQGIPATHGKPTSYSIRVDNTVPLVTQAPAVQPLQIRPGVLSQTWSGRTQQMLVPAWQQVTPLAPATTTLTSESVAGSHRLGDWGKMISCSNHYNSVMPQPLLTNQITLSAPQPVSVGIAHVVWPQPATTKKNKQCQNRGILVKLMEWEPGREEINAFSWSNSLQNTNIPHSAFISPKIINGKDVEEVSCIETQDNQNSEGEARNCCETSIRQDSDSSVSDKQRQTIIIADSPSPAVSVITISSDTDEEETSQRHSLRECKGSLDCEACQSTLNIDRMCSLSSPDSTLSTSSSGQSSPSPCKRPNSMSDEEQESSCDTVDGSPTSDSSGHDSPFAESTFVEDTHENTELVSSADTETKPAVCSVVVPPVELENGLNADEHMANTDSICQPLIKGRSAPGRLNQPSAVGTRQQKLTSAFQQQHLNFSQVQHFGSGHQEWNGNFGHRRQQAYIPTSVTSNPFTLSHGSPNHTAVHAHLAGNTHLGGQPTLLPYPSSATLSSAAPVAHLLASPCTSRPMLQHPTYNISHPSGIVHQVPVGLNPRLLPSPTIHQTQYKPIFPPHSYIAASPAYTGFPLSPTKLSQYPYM
How it was run: as §1

[6] = biological target: T3, 140 purified human kinases (Homo sapiens, UniProt O43318)
T3 sequence (O43318 1-606): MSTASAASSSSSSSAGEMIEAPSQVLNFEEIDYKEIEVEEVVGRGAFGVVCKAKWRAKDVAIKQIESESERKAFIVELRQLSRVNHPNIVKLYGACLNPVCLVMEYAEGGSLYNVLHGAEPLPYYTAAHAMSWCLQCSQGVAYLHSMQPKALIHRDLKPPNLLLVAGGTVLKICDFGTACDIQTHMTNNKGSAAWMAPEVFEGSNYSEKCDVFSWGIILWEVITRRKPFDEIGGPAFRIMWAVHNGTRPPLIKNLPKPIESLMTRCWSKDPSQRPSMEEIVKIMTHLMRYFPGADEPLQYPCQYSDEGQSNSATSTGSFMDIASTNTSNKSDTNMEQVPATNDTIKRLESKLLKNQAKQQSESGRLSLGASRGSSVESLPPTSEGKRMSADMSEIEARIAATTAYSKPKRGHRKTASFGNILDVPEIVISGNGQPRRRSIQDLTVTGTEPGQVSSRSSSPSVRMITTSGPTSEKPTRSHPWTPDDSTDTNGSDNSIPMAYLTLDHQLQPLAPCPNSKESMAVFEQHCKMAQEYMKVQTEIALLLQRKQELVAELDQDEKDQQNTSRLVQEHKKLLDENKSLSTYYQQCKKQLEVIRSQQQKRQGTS
How it was run: as §1

[7] = biological target: 140 purified human kinases (Homo sapiens, UniProt P45984)
Chain of 140 purified human kinases (Homo sapiens, UniProt P45984) (P45984 whole entry): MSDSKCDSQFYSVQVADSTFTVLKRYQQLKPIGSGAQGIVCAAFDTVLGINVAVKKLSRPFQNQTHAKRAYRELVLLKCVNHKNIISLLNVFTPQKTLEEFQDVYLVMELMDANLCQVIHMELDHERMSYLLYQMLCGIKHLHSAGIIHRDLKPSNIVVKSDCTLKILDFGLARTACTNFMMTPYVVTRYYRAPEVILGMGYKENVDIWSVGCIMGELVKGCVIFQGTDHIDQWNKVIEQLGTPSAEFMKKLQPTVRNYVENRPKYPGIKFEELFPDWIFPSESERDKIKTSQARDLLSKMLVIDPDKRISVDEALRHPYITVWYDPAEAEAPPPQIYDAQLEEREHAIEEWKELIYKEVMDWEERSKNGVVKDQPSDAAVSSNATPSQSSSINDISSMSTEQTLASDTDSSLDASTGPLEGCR
How it was run: as §1

[8] = biological target: 140 purified human kinases (Homo sapiens, UniProt Q6IQ55)
Chain of 140 purified human kinases (Homo sapiens, UniProt Q6IQ55) (Q6IQ55 whole entry): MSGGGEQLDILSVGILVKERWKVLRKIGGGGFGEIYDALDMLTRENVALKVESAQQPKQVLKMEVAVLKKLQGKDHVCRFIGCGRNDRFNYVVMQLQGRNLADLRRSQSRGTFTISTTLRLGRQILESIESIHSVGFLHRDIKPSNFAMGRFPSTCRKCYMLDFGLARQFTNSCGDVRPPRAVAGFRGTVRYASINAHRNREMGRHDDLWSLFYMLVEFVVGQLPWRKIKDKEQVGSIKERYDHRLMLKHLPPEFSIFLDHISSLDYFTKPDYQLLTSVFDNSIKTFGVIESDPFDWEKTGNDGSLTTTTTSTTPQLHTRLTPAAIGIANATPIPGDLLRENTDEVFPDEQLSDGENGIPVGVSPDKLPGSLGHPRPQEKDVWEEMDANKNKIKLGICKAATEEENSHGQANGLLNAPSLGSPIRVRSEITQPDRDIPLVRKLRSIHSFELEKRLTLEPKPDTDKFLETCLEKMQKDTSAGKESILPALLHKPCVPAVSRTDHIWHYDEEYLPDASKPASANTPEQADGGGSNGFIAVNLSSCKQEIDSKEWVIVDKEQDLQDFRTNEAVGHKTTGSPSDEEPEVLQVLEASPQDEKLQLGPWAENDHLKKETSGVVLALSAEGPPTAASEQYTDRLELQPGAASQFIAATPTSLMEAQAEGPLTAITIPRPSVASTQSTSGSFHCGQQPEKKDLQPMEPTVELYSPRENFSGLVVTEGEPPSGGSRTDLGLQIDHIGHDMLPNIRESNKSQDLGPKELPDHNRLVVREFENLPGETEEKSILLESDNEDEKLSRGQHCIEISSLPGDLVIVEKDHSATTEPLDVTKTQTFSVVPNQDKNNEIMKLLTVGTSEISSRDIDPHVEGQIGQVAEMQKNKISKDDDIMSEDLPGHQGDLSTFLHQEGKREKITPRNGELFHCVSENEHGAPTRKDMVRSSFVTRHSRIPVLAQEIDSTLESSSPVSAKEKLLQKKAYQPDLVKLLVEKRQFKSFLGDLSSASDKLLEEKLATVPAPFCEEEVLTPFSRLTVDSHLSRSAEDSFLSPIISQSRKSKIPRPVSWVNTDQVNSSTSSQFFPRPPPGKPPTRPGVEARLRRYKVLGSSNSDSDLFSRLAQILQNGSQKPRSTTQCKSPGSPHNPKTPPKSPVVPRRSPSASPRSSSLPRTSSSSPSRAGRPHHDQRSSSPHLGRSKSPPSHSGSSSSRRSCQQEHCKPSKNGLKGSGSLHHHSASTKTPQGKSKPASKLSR
How it was run: as §1

For `[Cu+2].[Cu+2].[Cu+2].c1ccc(-c2csc(NCCN(CCNc3nc(-c4ccccn4)cs3)CCNc3nc(-c4ccccn4)cs3)n2)nc1.c1ccc(-c2csc(NCCN(CCNc3nc(-c4ccccn4)cs3)CCNc3nc(-c4ccccn4)cs3)n2)nc1` [[L2Cu3]6+], the “% Inhibition Run 1” value ([1]; JNK1) was 20.4%, the “% Inhibition Run 2” value ([1]; JNK1) was 5.8% and the “% Inhibition, Mean” value ([1]; JNK1) was 13%. For the same compound, the mean % activity ([1]; JNK1) was 87%, the “% activity” value ([1]; JNK1, Run 1) was 79.6% and the “% activity” value ([1]; JNK1, Run 2) was 94.2%. The “% Inhibition Run 1” value ([2]; IRAK4) was 53.9%, the “% Inhibition Run 2” value ([2]; IRAK4) was 65.2% and the “% Inhibition, Mean” value ([2]; IRAK4) was 60%. For the same compound, the mean % activity ([2]; IRAK4) was 40%, the “% activity” value ([2]; IRAK4, Run 1) was 46.1% and the “% activity” value ([2]; IRAK4, Run 2) was 34.8%. The “% Inhibition Run 1” value ([3]; IRAK1) was 41.6%, the “% Inhibition Run 2” value ([3]; IRAK1) was 44.4% and the “% Inhibition, Mean” value ([3]; IRAK1) was 43%. For the same compound, the mean % activity ([3]; IRAK1) was 57%, the “% activity” value ([3]; IRAK1, Run 1) was 58.4% and the “% activity” value ([3]; IRAK1, Run 2) was 55.6%. The “% Inhibition Run 1” value ([4]; MST2) was 38.8%, the “% Inhibition Run 2” value ([4]; MST2) was 41.9% and the “% Inhibition, Mean” value ([4]; MST2) was 40%. For the same compound, the mean % activity ([4]; MST2) was 60%, the “% activity” value ([4]; MST2, Run 1) was 61.2% and the “% activity” value ([4]; MST2, Run 2) was 58.1%. For the same compound, the “% Inhibition Run 1” value ([5]; HIPK3) was 56.3%, the “% Inhibition Run 2” value ([5]; HIPK3) was 58.6% and the “% Inhibition, Mean” value ([5]; HIPK3) was 57%. The mean % activity ([5]; HIPK3) was 43%, the “% activity” value ([5]; HIPK3, Run 1) was 43.7% and the “% activity” value ([5]; HIPK3, Run 2) was 41.4%. For the same compound, the “% Inhibition Run 1” value ([6]; TAK1) was 45.7%, the “% Inhibition Run 2” value ([6]; TAK1) was 51.7% and the “% Inhibition, Mean” value ([6]; TAK1) was 49%. The mean % activity ([6]; TAK1) was 51%, the “% activity” value ([6]; TAK1, Run 1) was 54.3% and the “% activity” value ([6]; TAK1, Run 2) was 48.3%. The “% Inhibition Run 1” value ([7]; JNK2) was 22.9%, the “% Inhibition Run 2” value ([7]; JNK2) was 15.4% and the “% Inhibition, Mean” value ([7]; JNK2) was 19%. For the same compound, the mean % activity ([7]; JNK2) was 81%, the “% activity” value ([7]; JNK2, Run 1) was 77.1% and the “% activity” value ([7]; JNK2, Run 2) was 84.6%. For the same compound, the “% Inhibition Run 1” value ([8]; TTBK2) was 13%, the “% Inhibition Run 2” value ([8]; TTBK2) was -12.2% and the “% Inhibition, Mean” value ([8]; TTBK2) was 0.4%. The mean % activity ([8]; TTBK2) was 100%, the “% activity” value ([8]; TTBK2, Run 1) was 87% and the “% activity” value ([8]; TTBK2, Run 2) was 112.2%.
`CC(=O)[O-].CC(=O)[O-].CC(=O)[O-].CC(=O)[O-].CC(=O)[O-].CC(=O)[O-].[Zn+2].[Zn+2].[Zn+2].c1ccc(-c2csc(NCCN(CCNc3nc(-c4ccccn4)cs3)CCNc3nc(-c4ccccn4)cs3)n2)nc1.c1ccc(-c2csc(NCCN(CCNc3nc(-c4ccccn4)cs3)CCNc3nc(-c4ccccn4)cs3)n2)nc1` [[L2Zn3]6+] was tested, and the “% Inhibition, Mean” value ([1]; JNK1) was 5%, the mean % activity ([1]; JNK1) was 95% and the “% activity” value ([1]; JNK1, duplicate runs) was 88% and 102%. The “% Inhibition, Mean” value ([2]; IRAK4) was 10%, the “% Inhibition, Run 1 / Run 2” value ([2]; IRAK4) was 13% and 7% and the mean % activity ([2]; IRAK4) was 90%. The “% activity” value ([2]; IRAK4, duplicate runs) was 87% and 93%, the “% Inhibition, Mean” value ([3]; IRAK1) was 11% and the mean % activity ([3]; IRAK1) was 89%. The “% activity” value ([3]; IRAK1, duplicate runs) was 97% and 81%, the “% Inhibition, Mean” value ([4]; MST2) was 10% and the “% Inhibition, Run 1 / Run 2” value ([4]; MST2) was 14% and 6%. The mean % activity ([4]; MST2) was 90%, the “% activity” value ([4]; MST2, duplicate runs) was 86% and 94% and the “% Inhibition, Mean” value ([5]; HIPK3) was 15%. The mean % activity ([5]; HIPK3) was 85%, the “% activity” value ([5]; HIPK3, duplicate runs) was 97% and 72% and the “% Inhibition, Mean” value ([6]; TAK1) was 35%. The “% Inhibition, Run 1 / Run 2” value ([6]; TAK1) was 34% and 36%, the mean % activity ([6]; TAK1) was 65% and the “% activity” value ([6]; TAK1, duplicate runs) was 66% and 64%. The “% Inhibition, Mean” value ([7]; JNK2) was 31%, the “% Inhibition, Run 1 / Run 2” value ([7]; JNK2) was 33% and 28% and the mean % activity ([7]; JNK2) was 70%. The “% activity” value ([7]; JNK2, duplicate runs) was 67% and 72%, the “% Activation, Mean value” ([8]; TTBK2) was 0.5% and the “% Inhibition, Mean” value ([8]; TTBK2) was -0.5%. For the same compound, the mean % activity ([8]; TTBK2) was 101% and the “% activity” value ([8]; TTBK2, duplicate runs) was 91% and 110%.
